# Reference: US9889135B2, “Companion diagnostic for CDK4 inhibitors” (Memorial Sloan-Kettering Cancer Center, priority 2013, dated 2018)
# Peptide text beside a SMILES is read from it. * marks the point of attachment. Cbz = O=C(OCc1ccccc1)*
# Key:
# [1] = system: MDM2 in LS8817 and LS141 cells; experiment: MDM2 level after proteasome inhibition in PD0332991 treated cells; assay type: cell-based, human; settings: 10 μM MG132 added to cells treated with PD0332991 for two days
# WD/DDLS cells = settings: Ambrosini et al., 2007, Singer et al.; cited from earlier work
# WD/DDLS cell lines = experiment: annexin V staining (apoptosis); assay type: cell-based, human; settings: nutlin-3a, forty-eight hours; LS8817, LS0082, LS8107 and LS7785-1
# Description: FIG. 1A-C. […] Mean percentage of BrdU incorporation or annexin V+/7-AAD− cells was calculated from three or more independent experiments. Error bars represent standard deviation (*p<0.05).
# (§1) FIG. 13A-B. Nutlin-3a induces apoptosis in all the liposarcoma cell lines. The indicated cell lines were treated with nutlin-3a or vehicle control and extracts were prepared for immunoblotting (A) or annexin V staining (B) forty-eight hours after treatment. Mean percentage of annexin V+/7-AAD− cells was calculated from three or more independent experiments. Error bars represent standard deviation (*p<0.05).
# Cells were stained with BrdU (20 μM for two hours) or annexin V as previously described (22, 48). […] was determined by staining with propidium iodine and FACS analyses (49).
# [2] = system: MDM2 and p21 in LS8817, LS0082, LS8107 and LS7785-1 cells; experiment: p53 targets by immunoblot after nutlin-3a; assay type: cell-based, human; settings: forty-eight hours; all of the cell lines
# Description: as §1, with “The” for “FIG. 13A-B. Nutlin-3a induces apoptosis in all the liposarcoma cell lines. The”
# LS8817 cells = experiment: doxorubicin effect on LS8817 cells; assay type: cell-based, human
smiles,measurement,setting,value
CC(C)C[C@@H](C=O)NC(=O)[C@H](CC(C)C)NC(=O)[C@H](CC(C)C)NC(=O)OCc1ccccc1 [MG132] (Cbz-Leu-Leu-Leu-aldehyde),MDM2 level after addition of MG132,[1],re-accumulation
COc1ccc(C2=N[C@@H](c3ccc(Cl)cc3)[C@@H](c3ccc(Cl)cc3)N2C(=O)N2CCNC(=O)C2)c(OC(C)C)c1 [nutlin-3a],cell response to nutlin-3a,WD/DDLS cells,"growth arrest, p53 accumulation and apoptosis"
same,percentage of annexin V stained apoptotic cells,WD/DDLS cell lines,increased
same,"p53 targets, MDM2 and p21",[2],increased
COc1cccc2c1C(=O)c1c(O)c3c(c(O)c1C2=O)C[C@@](O)(C(=O)CO)C[C@@H]3O[C@H]1C[C@H](N)[C@H](O)[C@H](C)O1 [doxorubicin],MDM2 levels,LS8817 cells,without a reduction
same,p53,LS8817 cells,accumulation
same,senescence,LS8817 cells,entry of the LS8817 cells into senescence
